Patent US4062973A, “Sulfur-containing derivatives of cyclohexylphenyl-ethane” (Boehringer Ingelheim GmbH, priority 1975, dated 1977)
Where two headings read alike, the source gives them in different places.

Key:
mice = experiment: Determination of the prolongation of the bleeding time; assay type: in vivo; conditions: 10 mgm/kg orally, awake mice, compared with untreated control group
Description: 2. determination of the prolongation of the bleeding time:
To determine the effect on the bleeding time, 10 mgm/kg of the test compound were administered orally to awake, unanesthetized mice. After 1 hour, and again after 3 hours, about 0.5 mm from the end of the tail of each animal was cut off, and the exuded blood was carefully soaked up into filter paper every 30 seconds. The number of drops of blood so obtained provided a measure for the bleeding time (5 animals/experiment).
The numbers in Table II represent the prolongation in %, compared with an untreated control group: […]

[1] = system: platelet-rich plasma of healthy human donors; experiment: Determination of platelet aggregation by the method of Born and Cross (collagen-induced, platelet-rich plasma); assay type: cell-based; conditions: 10^-4 mol/lit., compared with control batch without test compound; for inhibition at 100 µM: Homo sapiens, Platelet
Description: 1. Determination of platelet aggregation by the method of Born and Cross (see J. Physiol. 170, 397 (1964)):
The platelet aggregation was measured in the platelet-rich plasma of healthy human donors. The alterations of the optical density of the platelet suspension was measured and recorded photometrically after the addition of commercial collagen manufactured by Hormonchemie, Munich, Germany, containing 1 mgm of collagen fibrils per ml. From the angle of inclination of the density curve, the rate of aggregation was estimated (Vmax). The optical density (O.D.) was taken at the point on the curve where the most light was transmitted. Small doses of collagen were chosen, but sufficient to give irreversible aggregation. To provoke maximum aggregation, about 0.01 ml of the collagen solution was added to 1 ml of platelet-rich plasma.
The numbers in Table I represent the % reduction in the aggregation rate (Vmax) and the % change in optical density (O.D.), compared with a control batch without addition of a test compound.

[2] = Acute toxicity in white mice after oral application of a single dose; assay type: in vivo; conditions: mouse, in vivo, observation time 14 days
Description: (§1) The acute toxicity of the compounds was determined in white mice (observation time: 14 days) after oral application of a single dose: […]

white mice = experiment: as above; assay type: in vivo; conditions: 1000 mgm/kg, observation time 14 days
Description: as §1

[3] = read-out: % Reduction (change) in optical density (O.D.)
[4] = read-out: % Reduction in the aggregation rate (Vmax)

| SMILES | Prolongation of the bleeding time in % after 1 hour (mice) | % Reduction (change) in optical density (O.D.) ([1]; 100 µM) | % Reduction in the aggregation rate (Vmax) ([1]; 100 µM) | Prolongation of the bleeding time in % after 3 hours (mice) | LD50 at 336 h [2] | Acute toxicity: animals died (white mice) | inhibition at 100 µM [1, 3] | inhibition at 100 µM [1, 4] |
| --- | --- | --- | --- | --- | --- | --- | --- | --- |
| CCOC(=O)C[S+]([O-])C(C)c1ccc(C2CCCCC2)c(Cl)c1 (stereo not drawn) [D, Ethyl [1-(3'-chloro-4'-cyclohexyl-phenyl)-ethylsulfinyl]-acetate] | 49% | 89% | 87% | – | – | – | – | – |
| CC(c1ccc(C2CCCCC2)cc1)[S+]([O-])CC(=O)O (stereo not drawn) [Compound A, [1-(4'-cyclohexyl-phenyl)-ethylsulfinyl]-acetic acid] | 300% | – | – | 122% | > 1000 mg/kg | 0 out of 10 | – | – |
| COC(=O)C[S+]([O-])C(C)c1ccc(C2CCCCC2)c(Cl)c1 (stereo not drawn) [C, methyl [1-(3'-chloro-4'-cyclohexyl-phenyl)-ethylsulfinyl]-acetate] | – | – | – | – | – | – | 89% | 85% |
| CC(c1ccc(C2CCCCC2)c(Cl)c1)[S+]([O-])CC(=O)N1CCCCC1 (stereo not drawn) [E, [1-(3'-chloro-4'-cyclohexyl-phenyl)-ethylsulfinyl]-acetic acid piperidide] | 37% | – | – | – | > 1000 mg/kg | 0 out of 10 | 92% | 90% |
| COC(=O)C[S+]([O-])C(C)c1ccc(C2CCCCC2)cc1 (stereo not drawn) [B, methyl [1-(4'-cyclohexyl-phenyl)-ethylsulfinyl]-acetate] | 117% | – | – | 51% | > 1000 mg/kg | 0 out of 10 | – | – |
